Publication PMC8843100, “Development of newly synthesised quinazolinone-based CDK2 inhibitors with potent efficacy against melanoma” (Journal of Enzyme Inhibition and Medicinal Chemistry, 2022)

Experiments:
COLO 205 = assay: NCI-60 single dose screen, sulforhodamine B; type: cell-based, human; conditions: Colon cancer COLO 205; single dose 10^−5 M
Protocol: (§1) In this research, all of the newly synthesised quinazolinones were subjected to in vitro anticancer screening by the National Cancer Institute (USA) against 60 different human cell lines including leukaemia, non-small cell lung cancer, colon cancer, CNS cancer, melanoma, ovarian cancer, renal cancer, prostate cancer, and breast cancer. The tested compounds were evaluated at a single dose (10^−5 M). […] Regarding the benzenesulfonamide counterparts, the introduction of an electron-withdrawing group on the benzenesulfonamide moiety increased the inhibitory activity on the glioblastoma cell line SNB-75 as depicted by the chloro derivative 5c (GI% = 63.09) which was higher than that of the unsubstituted derivative 5a (GI% = 40.06) and the methyl derivative 5b (GI% = 33.03).
(§2) 1. Cytotoxicity screening against a panel of 60 human tumor cell lines
(§3) All the compounds were selected for NCI-60 Human Tumor Cell Lines Screen by the Developmental Therapeutics Program (DTP) at the National Cancer Institute (NCI), Maryland, USA. The operation of this screen utilizes 60 different human tumor cell lines, representing leukemia, non-small-cell lung cancer, colon cancer, CNS cancer, melanoma, ovarian cancer, renal cancer, prostate cancer and breas t cancer.
(§4) The compounds were supplied as dry powder and a single concentration is tested in all 60 cell lines at a single dose of 10 µM solution in dimethyl sulfoxide (DMSO) using Sulforhodamine B assay. Briefly, cells are seeded in 96 well plates at an appropriate density and incubated for 1 day. After 1 day, some of the plates are processed to determine the density time zero. To the remaining plates, compounds are added at 10 µM concentration. Plates are incubated a further 2 days, then fixed and staine d with sulphorhodamine B. Growth inhibition is calculated relative to cells without drug treatment and the time zero control. The use of a time zero control allows the determination of cell kill as well as net growth inhibition. […]

OVCAR-3 = assay: NCI-60 single dose screen, sulforhodamine B; type: cell-based, human; conditions: Ovarian cancer OVCAR-3; single dose 10^−5 M
Protocol: as §1, §2, §3, §4

SF-268 = assay: NCI-60 single dose screen, sulforhodamine B; type: cell-based, human; conditions: CNS cancer SF-268; single dose 10^−5 M
Protocol: as §1, §2, §3, §4

SNB-19 = assay: NCI-60 single dose screen, sulforhodamine B; type: cell-based, human; conditions: CNS cancer SNB-19; single dose 10^−5 M
Protocol: as §1, §2, §3, §4

SNB-75 = assay: NCI-60 single dose screen, sulforhodamine B; type: cell-based, human; conditions: CNS cancer SNB-75; single dose 10^−5 M
Protocol: as §1, §2, §3, §4

MDA-MB-435 = assay: NCI-60 single dose screen, sulforhodamine B; type: cell-based, human; conditions: Melanoma MDA-MB-435; single dose 10^−5 M
Protocol: as §1, §2, §3, §4

OVCAR-4 = assay: NCI-60 single dose screen, sulforhodamine B; type: cell-based, human; conditions: Ovarian cancer OVCAR-4; single dose 10^−5 M
Protocol: as §1, §2, §3, §4

NCI-H522 = assay: NCI-60 single dose screen, sulforhodamine B; type: cell-based, human; conditions: Non-small cell lung cancer NCI-H522; single dose 10^−5 M
Protocol: as §1, §2, §3, §4

A549/ATCC = assay: NCI-60 single dose screen, sulforhodamine B; type: cell-based, human; conditions: Non-small cell lung cancer A549/ATCC; single dose 10^−5 M
Protocol: as §1, §2, §3, §4

RPMI-8226 = assay: NCI-60 single dose screen, sulforhodamine B; type: cell-based, human; conditions: Leukaemia RPMI-8226; single dose 10^−5 M
Protocol: as §1, §2, §3, §4

MOLT-4 = assay: NCI-60 single dose screen, sulforhodamine B; type: cell-based, human; conditions: Leukaemia MOLT-4; single dose 10^−5 M
Protocol: as §1, §2, §3, §4

K-562 = assay: NCI-60 single dose screen, sulforhodamine B; type: cell-based, human; conditions: Leukaemia K-562; single dose 10^−5 M
Protocol: as §1, §2, §3, §4

SF-295 = assay: NCI-60 single dose screen, sulforhodamine B; type: cell-based, human; conditions: CNS cancer SF-295; single dose 10^−5 M
Protocol: as §1, §2, §3, §4

UO-31 = assay: NCI-60 single dose screen, sulforhodamine B; type: cell-based, human; conditions: Renal cancer UO-31; single dose 10^−5 M
Protocol: as §1, §2, §3, §4

BT-549 = assay: NCI-60 single dose screen, sulforhodamine B; type: cell-based, human; conditions: Breast cancer BT-549; single dose 10^−5 M
Protocol: as §1, §2, §3, §4

TK-10 = assay: NCI-60 single dose screen, sulforhodamine B; type: cell-based, human; conditions: Renal cancer TK-10; single dose 10^−5 M
Protocol: as §1, §2, §3, §4

HOP-92 = assay: NCI-60 single dose screen, sulforhodamine B; type: cell-based, human; conditions: Non-small cell lung cancer HOP-92; single dose 10^−5 M
Protocol: as §1, §2, §3, §4

SW-620 = assay: NCI-60 single dose screen, sulforhodamine B; type: cell-based, human; conditions: Colon cancer SW-620; single dose 10^−5 M
Protocol: as §1, §2, §3, §4

ACHN = assay: NCI-60 single dose screen, sulforhodamine B; type: cell-based, human; conditions: Renal cancer ACHN; single dose 10^−5 M
Protocol: as §1, §2, §3, §4

EKVX = assay: NCI-60 single dose screen, sulforhodamine B; type: cell-based, human; conditions: Non-small cell lung cancer EKVX; single dose 10^−5 M
Protocol: as §1, §2, §3, §4

U251 = assay: NCI-60 single dose screen, sulforhodamine B; type: cell-based, human; conditions: CNS cancer U251; single dose 10^−5 M
Protocol: as §1, §2, §3, §4

NCI-H322M = assay: NCI-60 single dose screen, sulforhodamine B; type: cell-based, human; conditions: Non-small cell lung cancer NCI-H322M; single dose 10^−5 M
Protocol: as §1, §2, §3, §4

HCT-15 = assay: NCI-60 single dose screen, sulforhodamine B; type: cell-based, human; conditions: Colon cancer HCT-15; single dose 10^−5 M
Protocol: as §1, §2, §3, §4

A498 = assay: NCI-60 single dose screen, sulforhodamine B; type: cell-based, human; conditions: Renal cancer A498; single dose 10^−5 M
Protocol: as §1, §2, §3, §4

M14 = assay: NCI-60 single dose screen, sulforhodamine B; type: cell-based, human; conditions: Melanoma M14; single dose 10^−5 M
Protocol: as §1, §2, §3, §4

OVCAR-5 = assay: NCI-60 single dose screen, sulforhodamine B; type: cell-based, human; conditions: Ovarian cancer OVCAR-5; single dose 10^−5 M
Protocol: as §1, §2, §3, §4

SF-539 = assay: NCI-60 single dose screen, sulforhodamine B; type: cell-based, human; conditions: CNS cancer SF-539; single dose 10^−5 M
Protocol: as §1, §2, §3, §4

NCI-H226 = assay: NCI-60 single dose screen, sulforhodamine B; type: cell-based, human; conditions: Non-small cell lung cancer NCI-H226; single dose 10^−5 M
Protocol: as §1, §2, §3, §4

PC-3 = assay: NCI-60 single dose screen, sulforhodamine B; type: cell-based, human; conditions: Prostate cancer PC-3; single dose 10^−5 M
Protocol: as §1, §2, §3, §4

UACC-62 = assay: NCI-60 single dose screen, sulforhodamine B; type: cell-based, human; conditions: Melanoma UACC-62; single dose 10^−5 M
Protocol: as §1, §2, §3, §4

SR = assay: NCI-60 single dose screen, sulforhodamine B; type: cell-based, human; conditions: Leukaemia SR; single dose 10^−5 M
Protocol: as §1, §2, §3, §4

Cc1ccc(S(=O)(=O)Nn2c(COc3ccccc3)nc3ccccc3c2=O)cc1 [Compound 5b, 4-methyl-N-(4-oxo-2-(phenoxymethyl)quinazolin-3(4H)-yl)benzenesulfonamide]
10.74%: GI% at 10^−5 M (UO-31)
– (– means GI < 10%): GI% at 10^−5 M (COLO 205) | GI% at 10^−5 M (OVCAR-3) | GI% at 10^−5 M (SF-268) | GI% at 10^−5 M (SNB-19) | GI% at 10^−5 M (MDA-MB-435) | GI% at 10^−5 M (OVCAR-4) | GI% at 10^−5 M (NCI-H522) | GI% at 10^−5 M (A549/ATCC) | GI% at 10^−5 M (RPMI-8226) | GI% at 10^−5 M (MOLT-4) | GI% at 10^−5 M (K-562) | GI% at 10^−5 M (SF-295) | GI% at 10^−5 M (BT-549) | GI% at 10^−5 M (SW-620) | GI% at 10^−5 M (U251) | GI% at 10^−5 M (NCI-H322M) | GI% at 10^−5 M (HCT-15) | GI% at 10^−5 M (A498) | GI% at 10^−5 M (M14) | GI% at 10^−5 M (OVCAR-5) | GI% at 10^−5 M (SF-539) | GI% at 10^−5 M (NCI-H226) | GI% at 10^−5 M (PC-3) | GI% at 10^−5 M (UACC-62) | GI% at 10^−5 M (SR)
10.82%: GI% at 10^−5 M (HOP-92)
23.64%: GI% at 10^−5 M (TK-10)
140 to 142 °C: melting point
13.18%: GI% at 10^−5 M (EKVX)
33.03%: GI% at 10^−5 M (SNB-75)
15%: GI% at 10^−5 M (ACHN)

COc1cc(C=Nn2c(COc3ccccc3)nc3ccccc3c2=O)ccc1O [Compound 6a, 3-((4-hydroxy-3-methoxybenzylidene)amino)-2-(phenoxymethyl)quinazolin-4(3H)-one]
15.75%: GI% at 10^−5 M (UO-31)
13.12%: GI% at 10^−5 M (SNB-75)
191 to 193 °C: melting point
16.82%: GI% at 10^−5 M (NCI-H522)
– (– means GI < 10%): GI% at 10^−5 M (COLO 205) | GI% at 10^−5 M (OVCAR-3) | GI% at 10^−5 M (SF-268) | GI% at 10^−5 M (SNB-19) | GI% at 10^−5 M (MDA-MB-435) | GI% at 10^−5 M (OVCAR-4) | GI% at 10^−5 M (A549/ATCC) | GI% at 10^−5 M (RPMI-8226) | GI% at 10^−5 M (MOLT-4) | GI% at 10^−5 M (K-562) | GI% at 10^−5 M (SF-295) | GI% at 10^−5 M (BT-549) | GI% at 10^−5 M (TK-10) | GI% at 10^−5 M (HOP-92) | GI% at 10^−5 M (SW-620) | GI% at 10^−5 M (ACHN) | GI% at 10^−5 M (EKVX) | GI% at 10^−5 M (U251) | GI% at 10^−5 M (NCI-H322M) | GI% at 10^−5 M (HCT-15) | GI% at 10^−5 M (A498) | GI% at 10^−5 M (M14) | GI% at 10^−5 M (OVCAR-5) | GI% at 10^−5 M (SF-539) | GI% at 10^−5 M (NCI-H226) | GI% at 10^−5 M (PC-3) | GI% at 10^−5 M (UACC-62) | GI% at 10^−5 M (SR)
